Tests used:
[1] = refractive index (Na D-line) (dimensionless); wn = mass fraction of the nth substance listed; settings: 100 kPa, Liquid, Standard Abbe refractometry
[2] = wn = mass fraction of the nth substance listed; settings: 100 kPa, Liquid, Vibrating tube method

O=S(=O)([O-])[O-].[Mg+2] [magnesium sulfate] + O
Settings | mass density, [2] [kg/m3] | refractive index, [1]
288.15 K, w1 = 0.2409 | 1274.47 | 1.384
298.15 K, w1 = 0.2768 | 1302.41 | 1.3895
308.15 K, w1 = 0.2974 | 1325.91 | 1.3902

Reference: the NIST ThermoML archive (doi:10.1021/acs.jced.7b00378)
